Measured values as given in US11780845B2 (Relay Therapeutics, Inc., priority 2019, dated 2023).

Experiments:
FGFR2 = FGFR2 (Homo sapiens (Human), UniProt P21802); assay: FGFR2 Biochemical Caliper Assay
Procedure: Compounds of the present invention were also tested in a FGFR2 Biochemical Caliper Assay. Compounds were prepared in 10 mM DMSO solution and serially diluted into 11 concentrations by 3-fold dilution. […] 5 uL of ATP solution (100 uM) was added to start the reaction and the plate was incubated for 90 minutes, then 70 uL of stopping buffer (0.5M EDTA) was added to terminate the reaction. Each well was analyzed using EZ reader.

SNU16 cells = assay: SNU16 Cancer Cell Line Proliferation Assay; type: cell-based; conditions: Homo sapiens; SNU-16 cells
Procedure: Compounds of the present invention were also tested in a SNU16 Cancer Cell Line Proliferation Assay, Test compounds were prepared in a 10 mM DMSO stock solution. 45 uL of stock solution was transferred to a 384 well plate, and a 3-fold 11-point dolution was performed. SNU16 cells in a 384 well cell culture plate were seeded and incubated at 37 degrees for 24 hours. 40 nL of each concentration of compound was transferred from the compound plate to a corresponding well in the cell culture plate by Echo550 liquid handler. The plates were incubated for 96 hours, then equilibrated to room temperature for 15 minutes. 20 uL of CellTiter Glo reagent is added into each well, then the plate was shaken gently for 30 minutes at room temperature. Chemiluminescence was then read on an EnVision reader.

Chain of FGFR2 (P21802 22-821): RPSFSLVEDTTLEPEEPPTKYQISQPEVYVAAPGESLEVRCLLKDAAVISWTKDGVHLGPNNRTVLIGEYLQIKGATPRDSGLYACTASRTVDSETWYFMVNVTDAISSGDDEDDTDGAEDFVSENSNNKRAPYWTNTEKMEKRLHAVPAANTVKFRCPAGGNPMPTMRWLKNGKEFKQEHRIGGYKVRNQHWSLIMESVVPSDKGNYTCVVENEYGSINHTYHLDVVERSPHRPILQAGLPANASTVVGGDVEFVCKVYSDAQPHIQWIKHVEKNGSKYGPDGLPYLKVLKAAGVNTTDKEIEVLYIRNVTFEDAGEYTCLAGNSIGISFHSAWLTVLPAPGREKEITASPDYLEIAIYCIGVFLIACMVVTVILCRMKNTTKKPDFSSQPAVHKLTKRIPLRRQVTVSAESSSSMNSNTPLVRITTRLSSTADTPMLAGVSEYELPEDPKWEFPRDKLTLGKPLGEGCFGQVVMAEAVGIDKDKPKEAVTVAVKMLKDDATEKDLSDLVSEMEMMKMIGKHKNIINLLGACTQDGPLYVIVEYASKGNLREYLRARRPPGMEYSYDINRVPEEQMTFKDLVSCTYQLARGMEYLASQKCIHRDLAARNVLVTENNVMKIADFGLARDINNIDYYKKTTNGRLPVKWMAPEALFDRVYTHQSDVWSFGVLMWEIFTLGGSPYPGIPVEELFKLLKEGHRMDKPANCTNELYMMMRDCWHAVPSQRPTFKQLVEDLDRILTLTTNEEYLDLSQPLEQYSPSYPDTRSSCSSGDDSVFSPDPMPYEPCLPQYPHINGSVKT

Structure (SMILES)	IC50 (FGFR2) [nM]	IC50 (SNU16 cells) [nM]
C=CC(=O)Nc1ccc(-c2c(-c3ccc(C(=O)N4CCCC4)c(OC)c3)c3c(N)ncnc3n2C)cc1 [Example 161]	< 100	≤ 100
C=C(C)C(=O)Nc1ccc(-c2c(-c3cncc(N4CCOCC4)c3)c3c(N)ncnc3n2C)cc1 [Example 166]	1000 to 100000	250 to 1000
C=C(C)C(=O)Nc1ccc(-c2c(-c3ccc(Oc4cccc(F)c4)nc3)c3c(N)ncnc3n2C)cc1 [Example 167]	1000 to 100000	100 to 250
C=C(C)C(=O)Nc1ccc(-c2c(-c3ccc(Oc4cccc(C(F)(F)F)c4)nc3)c3c(N)ncnc3n2C)cc1 [Example 169]	1000 to 100000	250 to 1000
C=CC(=O)Nc1ccc(-c2c(C3=CCC(NC(C)=O)CC3)c3c(N)ncnc3n2C)cc1 (stereo not drawn) [Example 171]	100 to 250	250 to 1000
C=CC(=O)Nc1ccc(-c2c(-c3ccc(OC4CCOC4)c(C)c3)c3c(N)ncnc3n2C)cc1 (stereo not drawn) [Example 174]	< 100	≤ 100
C=C(C)C(=O)Nc1ccc(-c2c(-c3ccc(C(=O)N4CCOCC4)cc3)c3c(N)ncnc3n2C)cc1 [Example 176]	1000 to 100000	250 to 1000
C=C(C)C(=O)Nc1ccc(-c2c(-c3ccc4sc(C(=O)N(C)C)cc4c3)c3c(N)ncnc3n2C)cc1 [Example 180]	250 to 1000	100 to 250
C=C(C)C(=O)Nc1ccc(-c2c(-c3ccc(N4CCCCC4=O)cc3)c3c(N)ncnc3n2C)cc1 [Example 186]	1000 to 100000	250 to 1000
C=C(C)C(=O)Nc1ccc(-c2c(-c3ccc(CN4CCOCC4=O)cc3)c3c(N)ncnc3n2C)cc1 [Example 188]	1000 to 100000	250 to 1000
C=C(C)C(=O)Nc1ccc(-c2c(-c3ccc(C(=O)N4CCCCC4C)cc3)c3c(N)ncnc3n2C)cc1 (stereo not drawn) [Example 189]	< 100	≤ 100
C=C(C)C(=O)Nc1ccc(-c2c(-c3ccc(C(=O)N4CCC(C)CC4)cc3)c3c(N)ncnc3n2C)cc1 [Example 190]	1000 to 100000	250 to 1000
C=C(C)C(=O)Nc1ccc(-c2c(-c3ccc(N4CCNC4=O)cc3)c3c(N)ncnc3n2C)cc1 [Example 194]	250 to 1000	250 to 1000
C=C(C)C(=O)Nc1ccc(-c2c(C3CCN(C(=O)N4CCCC4)CC3)c3c(N)ncnc3n2C)cc1 [Example 197]	1000 to 100000	250 to 1000
C=C(C)C(=O)Nc1ccc(-c2c(-c3ccc(-c4ccon4)cc3)c3c(N)ncnc3n2C)cc1 [Example 199]	250 to 1000	250 to 1000
C=C(C)C(=O)Nc1ccc(-c2c(C3=CCC(C(=O)NC)CC3)c3c(N)ncnc3n2C)cc1 (stereo not drawn) [Example 201]	1000 to 100000	250 to 1000
C=C(C)C(=O)Nc1ccc(-c2c(-c3ccc(OC4CCOC4)c(C)c3)c3c(N)ncnc3n2C)cc1 (stereo not drawn) [Example 202]	250 to 1000	100 to 250
CN(C)C/C=C/C(=O)Nc1ccc(-c2c(-c3ccc(C(=O)N4CCCC4)cc3)c3c(N)ncnc3n2C)cc1 [Example 206]	< 100	100 to 250
C=C(C)C(=O)Nc1ccc(-c2c(-c3ccc4c(c3)CCCN4C)c3c(N)ncnc3n2C)cc1 [Example 207]	250 to 1000	250 to 1000
C=C(C)C(=O)Nc1c(F)cc(-c2c(-c3ccc(C(=O)N4CCCC4)cc3)c3c(N)ncnc3n2C)cc1F [Example 210]	1000 to 100000	250 to 1000
C=CC(=O)Nc1ccc(-c2c(-c3ccc4c(c3)CCCN4C)c3c(N)ncnc3n2C)cc1 [Example 211]	< 100	≤ 100
C=C(C)C(=O)Nc1ccc(-c2c(-c3ccc(C(=O)NC4CCCC4)cc3)c3c(N)ncnc3n2C)cc1 [Example 212]	< 100	≤ 100
C=CC(=O)Nc1ccc(-c2c(-c3ccc(C(=O)N4CCCC4)cc3)c3c(N)ncnc3n2C)c(F)c1 [Example 213]	< 100	≤ 100
C=C(C)C(=O)Nc1ccc(-c2c(-c3ccc(C(=O)N4CCCC4)cc3)c3c(N)ncnc3n2C)cc1F [Example 215]	250 to 1000	250 to 1000
